Measurements from publication PMC6681824 (Biochemistry, 2019).
Values joined by “and” are separate entries in the source; they are usually repeats but may differ in a detail not shown here. Identical values can stand only once. Like-named read-outs stand apart in the source and are kept apart here.

Experiments:
pol η = target: T1, pol η (Homo sapiens, UniProt Q9Y253); type: biochemical; conditions: for increase in G·T misincorporation rate constant (kpol), W versus B: G opposite T, W sequence compared to B sequence; for Kd: read-out: apparent Kd
T1 sequence (Q9Y253 1-713): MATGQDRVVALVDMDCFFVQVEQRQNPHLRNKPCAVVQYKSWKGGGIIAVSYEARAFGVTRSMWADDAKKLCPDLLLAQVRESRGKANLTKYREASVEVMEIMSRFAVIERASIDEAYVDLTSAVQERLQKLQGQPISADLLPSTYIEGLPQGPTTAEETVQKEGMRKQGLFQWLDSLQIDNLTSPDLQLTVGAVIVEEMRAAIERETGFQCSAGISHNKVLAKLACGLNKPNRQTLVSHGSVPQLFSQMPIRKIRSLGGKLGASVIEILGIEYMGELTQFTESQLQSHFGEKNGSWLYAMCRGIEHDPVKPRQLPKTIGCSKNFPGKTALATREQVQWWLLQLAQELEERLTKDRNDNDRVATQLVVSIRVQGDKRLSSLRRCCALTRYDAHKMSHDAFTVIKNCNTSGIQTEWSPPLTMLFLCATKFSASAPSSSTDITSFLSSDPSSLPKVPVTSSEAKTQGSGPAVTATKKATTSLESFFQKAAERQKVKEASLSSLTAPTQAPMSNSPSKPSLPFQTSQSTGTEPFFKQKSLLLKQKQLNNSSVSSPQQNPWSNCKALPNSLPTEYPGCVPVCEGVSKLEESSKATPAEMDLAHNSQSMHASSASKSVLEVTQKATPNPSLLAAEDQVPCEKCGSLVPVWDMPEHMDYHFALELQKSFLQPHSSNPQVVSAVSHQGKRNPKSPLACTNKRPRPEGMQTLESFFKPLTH

[1] = Potentiometric titration of leaving-group acids; type: physicochemical; conditions: 0.1 M KCl, 25 °C
[2] = G opposite T (mispair), B sequence
[3] = G opposite T (mispair), W sequence
[4] = A opposite T (correct), B sequence
[5] = A opposite T (correct), W sequence

| kpol (chemical misincorporation rate constant) (pol η; [2]) | kpol (chemical misincorporation rate constant) (pol η; [3]) | increase in G·T misincorporation rate constant (kpol), W versus B (pol η) | Kd (pol η; [2]) | Kd (pol η; [3]) | Kd (pol η; [4]) | Kd (pol η; [5]) | Structure (SMILES) | further results |
| --- | --- | --- | --- | --- | --- | --- | --- | --- |
| 0.032 ± 0.005 s⁻¹ | 0.12 ± 0.00 s⁻¹ | 3.8 fold and 4 fold | 370 ± 60 µM | 390 ± 20 µM |  |  | Nc1nc2c(ncn2C2CC(O)C(COP(=O)(O)OP(=O)(O)C(F)P(=O)(O)O)O2)c(=O)[nH]1 (stereo not shown) [dGTP-CHF] | increase in G·T misincorporation rate constant (kpol), W versus B (pol η; listed as CHF-dG): 3–4 fold |
| 0.21 ± 0.02 s⁻¹ | 0.86 ± 0.02 s⁻¹ | ~ 4 fold and 3–4 fold and 4 fold | 30 ± 3 µM | 20 ± 4 µM |  |  | Nc1nc2c(ncn2[C@H]2C[C@H](O)[C@@H](COP(=O)(O)OP(=O)(O)OP(=O)(O)O)O2)c(=O)[nH]1 [dGTP] |  |
|  |  |  |  |  | 190 ± 80 µM | 140 ± 20 µM | Nc1ncnc2c1ncn2[C@H]1CC(O)[C@@H](COP(=O)(O)OP(=O)(O)C(F)P(=O)(O)O)O1 (stereo partly shown) [dATP-CHF] |  |
|  |  |  |  |  | 9.4 ± 3.1 µM | 7.1 ± 2.1 µM | Nc1ncnc2c1ncn2[C@H]1C[C@H](O)[C@@H](COP(=O)(O)OP(=O)(O)OP(=O)(O)O)O1 [dATP] |  |
|  |  |  |  |  |  |  | O=P(O)(O)NP(=O)(O)O [imidodiphosphoric acid] | pKa1 [1]: 2.01; pKa2 [1]: 2.81; pKa3 [1]: 7.11; pKa4 (soln) ([1]; imidodiphosphoric acid (NH leaving group)): 9.70 |
